Experimental data: BindingDB's records for doi:10.1124/jpet.105.086363 (Wyeth, 2005)

Legend:
D(3) dopamine receptor = D(3) dopamine receptor (Homo sapiens, UniProt P35462)
[1] = molecular target: T1, 5-hydroxytryptamine receptor 1A (Homo sapiens, UniProt P08908)
T1 sequence (P08908 whole entry): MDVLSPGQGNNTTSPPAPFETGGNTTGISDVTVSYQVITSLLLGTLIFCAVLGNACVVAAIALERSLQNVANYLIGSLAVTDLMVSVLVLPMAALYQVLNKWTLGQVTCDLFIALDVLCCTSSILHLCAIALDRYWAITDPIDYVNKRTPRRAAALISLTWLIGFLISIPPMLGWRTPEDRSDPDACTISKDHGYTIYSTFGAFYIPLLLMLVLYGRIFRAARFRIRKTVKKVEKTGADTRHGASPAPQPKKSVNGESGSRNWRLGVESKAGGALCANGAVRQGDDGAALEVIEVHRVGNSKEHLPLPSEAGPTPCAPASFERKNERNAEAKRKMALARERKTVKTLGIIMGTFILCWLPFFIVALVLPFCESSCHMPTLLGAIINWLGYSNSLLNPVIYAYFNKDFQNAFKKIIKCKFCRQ

D(4) dopamine receptor = molecular target: T2, D(4) dopamine receptor (Homo sapiens, UniProt P21917)
T2 sequence (P21917 whole entry): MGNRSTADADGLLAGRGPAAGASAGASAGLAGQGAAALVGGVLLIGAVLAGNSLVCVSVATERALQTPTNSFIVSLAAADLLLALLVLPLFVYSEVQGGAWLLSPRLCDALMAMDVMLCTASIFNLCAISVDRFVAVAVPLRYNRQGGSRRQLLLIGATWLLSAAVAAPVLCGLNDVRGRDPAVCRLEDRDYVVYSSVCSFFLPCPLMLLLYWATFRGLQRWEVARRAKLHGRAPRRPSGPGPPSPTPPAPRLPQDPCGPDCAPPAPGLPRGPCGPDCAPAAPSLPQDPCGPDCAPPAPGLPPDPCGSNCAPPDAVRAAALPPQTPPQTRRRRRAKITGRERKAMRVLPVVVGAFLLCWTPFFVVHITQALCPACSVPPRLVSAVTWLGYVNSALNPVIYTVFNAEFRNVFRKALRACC

D(2) dopamine receptor = D(2) dopamine receptor (Homo sapiens, UniProt P14416)
[2] = molecular target: T3, Alpha-1A adrenergic receptor (Rattus norvegicus, UniProt P43140)
T3 sequence (P43140 whole entry): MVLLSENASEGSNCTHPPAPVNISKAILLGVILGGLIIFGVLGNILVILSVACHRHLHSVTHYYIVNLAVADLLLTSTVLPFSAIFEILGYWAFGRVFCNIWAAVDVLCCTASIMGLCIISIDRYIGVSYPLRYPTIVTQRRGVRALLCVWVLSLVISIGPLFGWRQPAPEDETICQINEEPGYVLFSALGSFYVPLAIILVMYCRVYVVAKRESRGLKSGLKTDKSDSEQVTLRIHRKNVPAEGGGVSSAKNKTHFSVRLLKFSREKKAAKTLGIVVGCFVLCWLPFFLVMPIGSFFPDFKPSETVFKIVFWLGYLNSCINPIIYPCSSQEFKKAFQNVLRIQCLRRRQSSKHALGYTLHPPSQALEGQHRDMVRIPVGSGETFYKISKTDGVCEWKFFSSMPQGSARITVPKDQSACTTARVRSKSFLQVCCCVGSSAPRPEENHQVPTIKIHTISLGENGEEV

Chain of D(3) dopamine receptor (P35462 as listed by the source): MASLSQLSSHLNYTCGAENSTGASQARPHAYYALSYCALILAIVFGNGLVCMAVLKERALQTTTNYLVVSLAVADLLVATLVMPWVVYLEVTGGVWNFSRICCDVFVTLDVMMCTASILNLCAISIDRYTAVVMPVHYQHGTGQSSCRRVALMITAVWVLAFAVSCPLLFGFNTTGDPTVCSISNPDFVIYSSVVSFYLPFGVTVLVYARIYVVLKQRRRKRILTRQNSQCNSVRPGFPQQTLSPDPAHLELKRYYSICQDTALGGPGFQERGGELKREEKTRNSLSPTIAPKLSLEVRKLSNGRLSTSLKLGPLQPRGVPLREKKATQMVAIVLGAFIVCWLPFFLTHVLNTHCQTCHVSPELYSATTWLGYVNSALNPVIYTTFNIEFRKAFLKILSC
Chain of D(2) dopamine receptor (P14416 whole entry): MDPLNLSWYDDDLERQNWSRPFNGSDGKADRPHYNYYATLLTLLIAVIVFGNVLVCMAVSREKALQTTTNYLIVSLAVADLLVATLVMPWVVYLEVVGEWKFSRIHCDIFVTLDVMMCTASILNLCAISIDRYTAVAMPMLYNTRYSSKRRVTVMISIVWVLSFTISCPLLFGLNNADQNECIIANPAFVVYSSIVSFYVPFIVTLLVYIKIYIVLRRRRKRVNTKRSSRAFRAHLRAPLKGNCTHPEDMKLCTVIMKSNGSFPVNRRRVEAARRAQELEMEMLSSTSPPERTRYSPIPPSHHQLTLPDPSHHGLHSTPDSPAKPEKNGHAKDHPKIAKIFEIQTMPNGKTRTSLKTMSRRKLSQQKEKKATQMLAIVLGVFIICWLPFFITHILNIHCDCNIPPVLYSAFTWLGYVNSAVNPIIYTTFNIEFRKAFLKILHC

Ki (D(3) dopamine receptor): 0.32 µM
Ki [1]: 0.0045 µM
Ki (D(4) dopamine receptor): 0.098 µM
Ki (D(2) dopamine receptor): 1.55 µM
Ki [2]: 0.248 µM
SMILES: C[C@H](CN(C(=O)c1ccc(C#N)cc1)c1ccccn1)N1CCN(c2cccc3c2OCCO3)CC1
